# Key:
# Type in all cases: in vivo
# [1] = test system: soybean (Glycine max L., var. Pella 86, SOY); assay: Pre-emerge greenhouse screening, crop safety (phytotoxicity rating); details: 14 days after application
# Source text: (§1) A standard greenhouse herbicide activity screening system was used to evaluate the herbicidal efficacy and crop safety of these test compounds. Seven broadleaf weed species including redroot pigweed (Amaranthus retroflexus, AMARE), velvetleaf (Abutilon theophrasti, ABUTH), sicklepod (Cassia obtusifolia, CASOB), ivyleaf morningglory (Ipomoea hederacea, IPOHE), lambsquarters (Chenopodium album, CHEAL), common ragweed (Ambrosia artemisiifolia L., AMBEL), and cocklebur (Xanthium strumarium, XANST) were used as test species. Four grass weed species including green foxtail (Setaria viridis, SETVI), barnyardgrass (Echinochloa crus-galli, ECHCG), johnsongrass (Sorghum halepense, SORHA), and large crabgrass (Digitaria sanguinalis, DIGSA) were also used. In addition, three crop species, field corn (Zea mays L., var. Dekalb 535, CORN), soybean (Glycine max L., var. Pella 86, SOY), and upland rice (Oryza sp., var.Tebonnet, RICE) were included.
# (§2) All plants were grown in 10 cm square plastic pots which were filled with a sandy loam soil mix. For pre-emerge tests, seeds were planted one day prior to application of the test compounds. For post-emerge tests, seeds were planted 8-21 days prior to the test to allow emergence and good foliage development prior to application of the test substances. At the time of the post-emerge application, plants of all species were usually at the 2-3 leaf stage of development.
# (§3) All test compounds were dissolved in acetone and applied to the test units in a volume of 187 1/ha. Test materials were applied at rates ranging from 15 g ai/ha to 1000 g ai/ha using a track sprayer equipped with a TJ8001E even flow flat fan spray nozzle. Plants were arranged on a shelf so that the top of the canopy (post-emerge) or top of the soil surface (pre-emerge) was 40-45 cm below the nozzle. Pressurized air was used to force the test solution through the nozzle as it was mechanically advanced (via electrically driven chain drive) over the top of all test plants/pots. This application simulates a typical commercial field herbicide application.
# (§4) In the post-emerge test, a commercial non-ionic surfactant was also included (0.25% v/v) to enhance wetting of the leaf surfaces of target plants. Immediately after application, test units of the pre-emerge applications were watered at the soil surface to incorporate the test materials. Subsequently, these test units were bottom-watered. Post-emerge test units were always bottom-watered.
# (§5) At 14 days after application of the test materials, phytotoxicity ratings were recorded. A rating scale of 0-100 was used as previously described in Research Methods in Weed Science, 2nd edition, B. Truelove, Ed., Southern Weed Science Society, Auburn University, Auburn, Ala., 1977. Briefly, “0” corresponds to no damage and “100” corresponds to complete death of all plants in the test unit. This scale was used both to determine efficacy against weed species and damage to crop species. Herbicide activity data for various compounds of this invention, which are shown by compound No. in Tables I-VI, are shown in Tables VIII-IX.
# [2] = test system: field corn (Zea mays L., var. Dekalb 535, CORN); assay: as above; details: 14 days after application
# Source text: as §1, §2, §3, §4, §5
# [3] = test system: upland rice (Oryza sp., var.Tebonnet, RICE); assay: as above; details: 14 days after application
# Source text: as §1, §2, §3, §4, §5
# [4] = test system: common ragweed (Ambrosia artemisiifolia L., AMBEL); assay: Post-emerge greenhouse herbicide activity screening, phytotoxicity rating
# Source text: as §1, §2, §3, §4, §5
# [5] = test system: velvetleaf (Abutilon theophrasti, ABUTH); assay: as above; details: 14 days after application
# Source text: as §1, §2, §3, §4, §5
# [6] = test system: ivyleaf morningglory (Ipomoea hederacea, IPOHE); assay: as above; details: 14 days after application
# Source text: as §1, §2, §3, §4, §5
# [7] = test system: sicklepod (Cassia obtusifolia, CASOB); assay: as above
# Source text: as §1, §2, §3, §4, §5
# [8] = test system: large crabgrass (Digitaria sanguinalis, DIGSA); assay: as above; details: 14 days after application
# Source text: as §1, §2, §3, §4, §5
# [9] = test system: johnsongrass (Sorghum halepense, SORHA); assay: as above; details: 14 days after application
# Source text: as §1, §2, §3, §4, §5
# [10] = test system: redroot pigweed (Amaranthus retroflexus, AMARE); assay: as above
# Source text: as §1, §2, §3, §4, §5
# [11] = test system: lambsquarters (Chenopodium album, CHEAL); assay: as above
# Source text: as §1, §2, §3, §4, §5
# [12] = test system: barnyardgrass (Echinochloa crus-galli, ECHCG); assay: as above; details: 14 days after application
# Source text: as §1, §2, §3, §4, §5
# [13] = test system: green foxtail (Setaria viridis, SETVI); assay: as above
# Source text: as §1, §2, §3, §4, §5
# [14] = test system: soybean (Glycine max L., var. Pella 86, SOY); assay: Post-emerge greenhouse screening, crop safety (phytotoxicity rating); details: 14 days after application
# Source text: as §1, §2, §3, §4, §5
# [15] = test system: upland rice (Oryza sp., var.Tebonnet, RICE); assay: as above; details: 14 days after application
# Source text: as §1, §2, §3, §4, §5
# [16] = test system: field corn (Zea mays L., var. Dekalb 535, CORN); assay: Post-emerge greenhouse screening, crop safety / corn selectivity (phytotoxicity rating); details: 14 days after application
# Source text: as §1, §2, §3, §4, §5
# [17] = test system: common ragweed (Ambrosia artemisiifolia L., AMBEL); assay: Pre-emerge greenhouse herbicide activity screening, phytotoxicity rating; details: 14 days after application
# Source text: as §1, §2, §3, §4, §5
# [18] = test system: velvetleaf (Abutilon theophrasti, ABUTH); assay: as above; details: 14 days after application
# Source text: as §1, §2, §3, §4, §5
# [19] = test system: ivyleaf morningglory (Ipomoea hederacea, IPOHE); assay: as above; details: 14 days after application
# Source text: as §1, §2, §3, §4, §5
# [20] = test system: sicklepod (Cassia obtusifolia, CASOB); assay: as above; details: 14 days after application
# Source text: as §1, §2, §3, §4, §5
# [21] = test system: large crabgrass (Digitaria sanguinalis, DIGSA); assay: as above; details: 14 days after application
# Source text: as §1, §2, §3, §4, §5
# [22] = test system: johnsongrass (Sorghum halepense, SORHA); assay: as above; details: 14 days after application
# Source text: as §1, §2, §3, §4, §5
# [23] = test system: redroot pigweed (Amaranthus retroflexus, AMARE); assay: as above; details: 14 days after application
# Source text: as §1, §2, §3, §4, §5
# [24] = test system: lambsquarters (Chenopodium album, CHEAL); assay: as above; details: 14 days after application
# Source text: as §1, §2, §3, §4, §5
# [25] = test system: barnyardgrass (Echinochloa crus-galli, ECHCG); assay: as above; details: 14 days after application
# Source text: as §1, §2, §3, §4, §5
# [26] = test system: green foxtail (Setaria viridis, SETVI); assay: as above; details: 14 days after application
# Source text: as §1, §2, §3, §4, §5
# [27] = 125 g ai/ha, 14 days after application
# [28] = 250 g ai/ha, 14 days after application
smiles,measurement,setting,value
Cn1c(C(F)(F)F)cc(=O)n(-c2cc(Oc3ccccc3N)c(Cl)cc2F)c1=S [Compound 1-48],"SOY crop damage, phytotoxicity rating (0-100 scale)",[1]; 125 g ai/ha,0
same,"SOY crop damage, phytotoxicity rating (0-100 scale)",[1]; 250 g ai/ha,0
same,"CORN crop damage, phytotoxicity rating (0-100 scale)",[2]; 125 g ai/ha,0
same,"CORN crop damage, phytotoxicity rating (0-100 scale)",[2]; 250 g ai/ha,5
same,"RICE crop damage, phytotoxicity rating (0-100 scale)",[3]; 125 g ai/ha,0
same,"RICE crop damage, phytotoxicity rating (0-100 scale)",[3]; 250 g ai/ha,8
same,AMBEL phytotoxicity rating (0-100 scale),[4]; 31.3 g ai/ha,60
same,AMBEL phytotoxicity rating (0-100 scale),[4]; 62.5 g ai/ha,50
same,AMBEL phytotoxicity rating (0-100 scale),[4]; [27],60
same,AMBEL phytotoxicity rating (0-100 scale),[4]; [28],75
same,ABUTH phytotoxicity rating (0-100 scale),[5]; 125 g ai/ha,85
same,ABUTH phytotoxicity rating (0-100 scale),[5]; 250 g ai/ha,95
same,IPOHE phytotoxicity rating (0-100 scale),[6]; 125 g ai/ha,80
same,IPOHE phytotoxicity rating (0-100 scale),[6]; 250 g ai/ha,75
same,CASOB phytotoxicity rating (0-100 scale),[7]; 31.3 g ai/ha,50
same,CASOB phytotoxicity rating (0-100 scale),[7]; 62.5 g ai/ha,75
same,CASOB phytotoxicity rating (0-100 scale),[7]; [27],75
same,CASOB phytotoxicity rating (0-100 scale),[7]; [28],75
same,DIGSA phytotoxicity rating (0-100 scale),[8]; 125 g ai/ha,25
same,DIGSA phytotoxicity rating (0-100 scale),[8]; 250 g ai/ha,50
same,SORHA phytotoxicity rating (0-100 scale),[9]; 125 g ai/ha,0
same,SORHA phytotoxicity rating (0-100 scale),[9]; 250 g ai/ha,0
same,AMARE phytotoxicity rating (0-100 scale),[10]; 31.3 g ai/ha,100
same,AMARE phytotoxicity rating (0-100 scale),[10]; 62.5 g ai/ha,100
same,AMARE phytotoxicity rating (0-100 scale),[10]; [27],100
same,AMARE phytotoxicity rating (0-100 scale),[10]; [28],100
same,CHEAL phytotoxicity rating (0-100 scale),[11]; 31.3 g ai/ha,80
same,CHEAL phytotoxicity rating (0-100 scale),[11]; 62.5 g ai/ha,99
same,CHEAL phytotoxicity rating (0-100 scale),[11]; [27],100
same,CHEAL phytotoxicity rating (0-100 scale),[11]; [28],100
same,ECHCG phytotoxicity rating (0-100 scale),[12]; 125 g ai/ha,0
same,ECHCG phytotoxicity rating (0-100 scale),[12]; 250 g ai/ha,0
same,SETVI phytotoxicity rating (0-100 scale),[13]; 31.3 g ai/ha,0
same,SETVI phytotoxicity rating (0-100 scale),[13]; 62.5 g ai/ha,30
same,SETVI phytotoxicity rating (0-100 scale),[13]; [27],50
same,SETVI phytotoxicity rating (0-100 scale),[13]; [28],60
same,"SOY crop damage, phytotoxicity rating (0-100 scale)",[14]; 125 g ai/ha,0
same,"SOY crop damage, phytotoxicity rating (0-100 scale)",[14]; 250 g ai/ha,0
same,"RICE crop damage, phytotoxicity rating (0-100 scale)",[15]; 125 g ai/ha,0
same,"RICE crop damage, phytotoxicity rating (0-100 scale)",[15]; 250 g ai/ha,35
same,"CORN crop damage, phytotoxicity rating (0-100 scale)",[16]; 125 g ai/ha,0
same,"CORN crop damage, phytotoxicity rating (0-100 scale)",[16]; 250 g ai/ha,10
same,AMBEL phytotoxicity rating (0-100 scale),[17]; 125 g ai/ha,70
same,AMBEL phytotoxicity rating (0-100 scale),[17]; 250 g ai/ha,70
same,ABUTH phytotoxicity rating (0-100 scale),[18]; 125 g ai/ha,90
same,ABUTH phytotoxicity rating (0-100 scale),[18]; 250 g ai/ha,100
same,IPOHE phytotoxicity rating (0-100 scale),[19]; 125 g ai/ha,80
same,IPOHE phytotoxicity rating (0-100 scale),[19]; 250 g ai/ha,100
same,CASOB phytotoxicity rating (0-100 scale),[20]; 125 g ai/ha,0
same,CASOB phytotoxicity rating (0-100 scale),[20]; 250 g ai/ha,0
same,DIGSA phytotoxicity rating (0-100 scale),[21]; 125 g ai/ha,55
same,DIGSA phytotoxicity rating (0-100 scale),[21]; 250 g ai/ha,75
same,SORHA phytotoxicity rating (0-100 scale),[22]; 125 g ai/ha,55
same,SORHA phytotoxicity rating (0-100 scale),[22]; 250 g ai/ha,85
same,AMARE phytotoxicity rating (0-100 scale),[23]; 125 g ai/ha,100
same,AMARE phytotoxicity rating (0-100 scale),[23]; 250 g ai/ha,100
same,CHEAL phytotoxicity rating (0-100 scale),[24]; 125 g ai/ha,100
same,CHEAL phytotoxicity rating (0-100 scale),[24]; 250 g ai/ha,100
same,ECHCG phytotoxicity rating (0-100 scale),[25]; 125 g ai/ha,80
same,ECHCG phytotoxicity rating (0-100 scale),[25]; 250 g ai/ha,85
same,SETVI phytotoxicity rating (0-100 scale),[26]; 125 g ai/ha,90
same,SETVI phytotoxicity rating (0-100 scale),[26]; 250 g ai/ha,99
